The record followed here is ChEMBL document CHEMBL1150001, “A rationale for the design and synthesis of m1 selective muscarinic agonists” (Bioorg Med Chem Lett, 1992).

Experiment [1] concerns the target T1, Muscarinic receptor M1 and M2 (Rattus norvegicus, UniProt P08482+P10980).
T1 sequence (P08482 whole entry): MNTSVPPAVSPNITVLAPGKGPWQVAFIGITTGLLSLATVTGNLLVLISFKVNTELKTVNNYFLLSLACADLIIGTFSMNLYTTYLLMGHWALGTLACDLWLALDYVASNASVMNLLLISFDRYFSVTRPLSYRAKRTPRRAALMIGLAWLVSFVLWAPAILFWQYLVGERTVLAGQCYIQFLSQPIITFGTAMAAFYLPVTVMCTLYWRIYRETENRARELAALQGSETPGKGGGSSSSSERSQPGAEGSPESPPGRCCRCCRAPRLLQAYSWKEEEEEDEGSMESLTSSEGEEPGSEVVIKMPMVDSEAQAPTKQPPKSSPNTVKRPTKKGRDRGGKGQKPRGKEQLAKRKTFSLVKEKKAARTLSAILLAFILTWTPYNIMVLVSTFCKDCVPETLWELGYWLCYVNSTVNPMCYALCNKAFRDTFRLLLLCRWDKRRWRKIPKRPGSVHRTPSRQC
T1 sequence (P10980 whole entry): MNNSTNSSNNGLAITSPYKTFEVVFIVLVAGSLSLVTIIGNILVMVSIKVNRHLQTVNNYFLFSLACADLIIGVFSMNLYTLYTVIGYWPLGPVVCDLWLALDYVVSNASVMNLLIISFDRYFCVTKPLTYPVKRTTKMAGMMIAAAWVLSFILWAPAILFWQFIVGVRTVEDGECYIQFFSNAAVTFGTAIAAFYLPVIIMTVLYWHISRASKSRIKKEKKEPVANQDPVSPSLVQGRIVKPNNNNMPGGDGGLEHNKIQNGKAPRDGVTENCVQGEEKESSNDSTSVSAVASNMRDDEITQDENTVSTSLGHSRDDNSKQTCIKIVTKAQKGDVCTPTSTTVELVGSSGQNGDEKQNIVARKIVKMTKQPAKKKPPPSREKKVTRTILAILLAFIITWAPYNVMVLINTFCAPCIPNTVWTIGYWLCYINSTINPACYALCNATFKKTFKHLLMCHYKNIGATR
The experiment can be described thus: Compound was evaluated for its inhibition of [3H]quinuclidinyl benzilate binding to label antagonist site (RQNB) in rat neocortex.

For experiment [2], the target named is T2, Muscarinic acetylcholine receptor M1 (Homo sapiens, UniProt P11229).
T2 sequence (P11229 whole entry): T1 sequence (P08482 whole entry) with V5A, S254T, S309P, K320R, G337A, V413I
In kind it is functional, cell-based, CHO.
Description: Inhibitory activity against human Muscarinic acetylcholine receptor M1 using [3H]quinuclidinyl benzilate to label antagonist site (RQNB) in CHO cells

The target in experiment [3] is T3, Muscarinic acetylcholine receptor M2 (Homo sapiens, UniProt P08172).
T3 sequence (P08172 whole entry): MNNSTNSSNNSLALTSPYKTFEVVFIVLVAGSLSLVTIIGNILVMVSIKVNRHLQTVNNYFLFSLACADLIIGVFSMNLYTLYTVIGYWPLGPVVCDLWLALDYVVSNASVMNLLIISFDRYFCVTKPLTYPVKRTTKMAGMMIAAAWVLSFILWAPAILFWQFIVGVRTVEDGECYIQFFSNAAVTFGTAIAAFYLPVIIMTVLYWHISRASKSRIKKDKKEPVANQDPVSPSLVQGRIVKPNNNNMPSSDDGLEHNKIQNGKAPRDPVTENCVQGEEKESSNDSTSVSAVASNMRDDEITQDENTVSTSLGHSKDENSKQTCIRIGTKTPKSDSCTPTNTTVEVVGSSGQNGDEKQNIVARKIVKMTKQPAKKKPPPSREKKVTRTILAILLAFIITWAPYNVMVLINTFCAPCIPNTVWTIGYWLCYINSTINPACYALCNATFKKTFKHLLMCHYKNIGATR
In words: Compound was evaluated for inhibitory activity for Muscarinic acetylcholine receptor M2 using [3H]quinuclidinyl benzilate to label antagonist site (RQNB) in CHO cells. In kind it is cell-based.

The target of experiment [4] is Muscarinic acetylcholine receptor. In words: Compound was evaluated for inhibition of [3H]cis-methyldioxolane binding to label agonist sites (RCMD) in rat neocortex.

Numbering of substitutions follows the chain as printed.

With `CCCC#CCO/N=C1\CN2CCC1C2` (centres undefined), the IC50 (usually the concentration at which inhibition is half-maximal) is 8.689 µM in experiment [1], 9.64 µM in experiment [2], 20.6 µM in experiment [3] and 0.048 µM in experiment [4].
